Results as given in US10765643B2, “Use of cannabidiol in the treatment of epilepsy” (GW Pharma Limited, priority 2014, dated 2020).

Assays:
seizures [1] = conditions: Consroe et al., 1977; cited from earlier work
[2] = test system: seizures after pro-convulsant drugs or an electric current; conditions: mice; cited from earlier work
generalized epilepsy = conditions: eight adult patients with generalized epilepsy; cited from earlier work
[3] = test system: seizures associated with Aicardi Syndrome; test: Expanded access compassionate use program: CBD added to baseline AED regimen, seizure frequency from seizure diaries; assay type: in vivo, human
Procedure: Of 137 children and young adults with severe, childhood onset treatment-resistant epilepsy (TRE), 14 suffered from Aicardi syndrome. These subjects were tested with a highly purified extract of cannabidiol (CBD) obtained from a cannabis plant. The participants in the study were part of an expanded access compassionate use program for CBD.
All of these patients diagnosed with Aicardi Syndrome presented with multiple seizure types which included
focal seizures with impairment; infantile spasm; clonic seizures; tonic seizures; tonic-clonic seizures; atonic seizures; myoclonic seizures; absence seizures; and focal seizures evolving to secondary generalised seizures.
All patients entered a baseline period of 4 weeks when parents/caregivers kept prospective seizure diaries, noting all countable motor seizure types.
The patients then received a highly purified CBD extract (greater than 98% CBD w/w) in sesame oil, of known and constant composition, at a dose of 5 mg/kg/day in addition to their baseline anti-epileptic drug (AED) regimen.
Laboratory testing for hematologic, liver, kidney function, and concomitant AED levels was performed at baseline, and after CBD therapy.
All patients were taking at least two concomitant anti-epileptic drugs. These included clobazam; levetiracetam; topiramate; stiripentol; phenobarbital; lacsamide; valproic acid; zonisamide. The average number of concomitant antiepileptic drugs being taken was 2.7.
There were 14 children and young adult patients who received at least 3 months of treatment all of whom suffered from treatment-resistant epilepsy which is characterised by Aicardi Syndrome.
The change from baseline in the number of different seizures and total number of seizures after 12 weeks treatment are summarized in Table 7 below.

Lennox-Gastaut syndrome = conditions: one child with Lennox-Gastaut syndrome, CBD in an oily solution; cited from earlier work
[4] = Solubility of drug substance in water; assay type: physicochemical
Text: The drug substance, CBD is insoluble in water. Sesame oil was selected as an excipient to solubilize the drug substance.

seizures [5] = conditions: 200 mg/day pure CBD, twelve institutionalized adult patients, open label; cited from earlier work
seizures [6] = conditions: 200 mg/day pure CBD, four adult patients; seizure frequency unchanged in the remainder; cited from earlier work
[7] = 14 Aicardi Syndrome patients, after 12 weeks treatment, CBD 5 up to 25 mg/kg/day plus concomitant AED
[8] = Aicardi Syndrome patients, after 3 months of therapy

| SMILES | pro-convulsant effect (seizures [1]) | prevention of seizures [2] | patients with marked reduction of seizures (generalized epilepsy) | Average change in baseline (%) Convulsive seizures [3, 7] | Average change in baseline (%) Focal seizures with impairment [3, 7] | Average change in baseline (%) Infantile spasm [3, 7] | Average change in baseline (%) Total seizures [3, 7] | reduction in convulsive seizures [3, 8] | reduction in focal seizures with impairment [3, 8] | reduction of infantile spasms [3, 8] | reduction in total seizures ([3]; Aicardi Syndrome patients, after 3 months of therapy, average decrease) | focal onset seizures evolving to secondary generalisation ([3]; one patient, week 12, 47 seizures at baseline, earlier stage of program) | tonic-clonic seizures ([3]; other patient, week 12, 7 seizures at baseline, earlier stage of program) | tonic seizures ([3]; other patient, week 12, 67 seizures at baseline, earlier stage of program) | seizure frequency (Lennox-Gastaut syndrome) | solubility in water [4] | controlling seizures (seizures [5]) | patients who became seizure free (seizures [6]) |
| --- | --- | --- | --- | --- | --- | --- | --- | --- | --- | --- | --- | --- | --- | --- | --- | --- | --- | --- |
| CCCCCc1cc(O)c2c(c1)OC(C)(C)[C@@H]1CCC(C)=C[C@@H]21 [THC, Tetrahydro- cannabinol] | pro-convulsant | – | – | – | – | – | – | – | – | – | – | – | – | – | – | – | – | – |
| C=C(C)[C@@H]1CCC(C)=C[C@H]1c1c(O)cc(CCCCC)cc1O [CBD, Cannabidiol] | – | able to prevent seizures | 4 | −77% | −62% | −55.5% | −69% | 77% | 62% | 55.5% | 69% | 17 per month | 5 per month | 6 per month | improvement | insoluble | ineffective | two of the four |
